Key:
Assay type in all cases: in vitro ADME
[1] = Metabolic stability in hepatocytes, human; details: cryopreserved hepatocytes
Protocol: Metabolic stabilities of assay compound in hepatocytes of CD-1 mice, SD rats, beagle dogs, cynomolgus monkeys, and human were assayed, respectively.
Several 96-well sample precipitation plates were prepared and named T0, T15, T30, T60, T90, T120, T0-MC, T120-MC and blank substrates, respectively. The recovery medium and incubation medium were taken out in advance and placed in a 37° C. water bath for pre-heating. Cryopreserved hepatocytes were removed from the liquid nitrogen tank and immediately immersed in a 37° C. water bath (approximately 90 seconds). After the cryopreserved hepatocytes had thawed and loosened, they were poured into a centrifuge tube containing 40 mL of recovery medium, and the tube was gently inverted to allow the cells to be resuspended in the recovery medium. The cells were centrifuged at 100×g at room temperature for 5 min, and the supernatant was removed. The hepatocytes were resuspended in an appropriate volume of incubation medium, and the cell viability was calculated by Trypan Blue staining method. 198 μL of hepatocyte suspension (0.51×10^6 cells/mL) was added to the preheated incubation plate. For the culture medium control group, 198 μL of hepatocyte-free incubation medium was added to T0-MC and T120-MC incubation plate. All incubation plates were pre-incubated in a 37° C. incubator for 10 minutes. Then 2 μL of working solutions of the assay sample and the control compound were added, respectively, and the mixture was mixed well. The incubation plate was immediately put into the shaker in the incubator, and the reaction was initiated while starting the timer. For each time point of each compound, 2 duplicate samples were prepared. The incubation conditions were 37° C., saturated humidity, and 5% CO2. […] All samples were mixed well and analyzed by LC/MS/MS.

[2] = Stability in plasma, CD-1 mice; details: CD-1 mice plasma, 2 μM, 37° C.
Protocol: Stabilities of the assay compound in plasma of CD-1 mice and human were assayed, respectively. Cryopreserved plasma was thawed for 10 to 20 min. After the plasma was completely thawed, it was placed in a centrifuge and centrifuged at 3220×g for 5 min to remove any suspended matter and sediment in the plasma. 96-well incubation plates were prepared and named T0, T10, T30, T60, T120, respectively. 98 μL of blank plasmas of mouse, rat, canine, monkey and human were added to the corresponding incubation plates, then 2 μL of working solutions of the compound or the control compound were added to the corresponding plates in duplicate. All samples were incubated in a 37° C. water bath. The final incubation concentrations of the compound and the control compounds bisacodyl, enalapril maleate, procaine and probanthine were 2 μM, and the final organic phase content was 2.0%. At the end of incubation for each time point, the corresponding incubation plate was removed and 400 μL of a solution of 200 ng/mL of tolbutamide and labetalol in acetonitrile was added to each corresponding sample well to precipitate the protein. All sample plates were sealed and shaken well, and then centrifuged at 3220×g for 20 minutes. 50 μL of supernatant was taken out and diluted in 100 μL of ultrapure water. All samples were mixed well and then analyzed by LC/MS/MS.

[3] = Stability in whole blood, SD rats; details: 5 μM, 37° C.
Protocol: Stabilities of the assay compound in whole blood of CD-1 mice, SD rats, beagle dogs and cynomolgus monkeys were assayed, respectively. On the day of the assay or the day before the assay, fresh whole blood from CD-1 mice, SD rats, beagle dogs, and cynomolgus monkeys was collected using anticoagulant EDTA-K2. Prior to the start of the assay, the whole blood was mixed with PBS in 1:1 (v: v) and the mixture was preheated in a 37° C. water bath for 10 to 20 minutes. 96-well incubation plates were prepared and named T0, T30, T60, […], respectively. In the corresponding incubation plates, including T0, T30, T60 and […] incubation plates, 2 μL of working solutions of the compound or the control compound were mixed with 98 μL of blank whole blood of mice, rats, canines, monkeys and human in duplicate. All samples were incubated in a 37° C. water bath. The final incubation concentration of the compound was 5 μM and the final incubation concentration of the control compound was 2 μM. At the end of incubation for each time point, the corresponding incubation plate was removed and 100 μL of ultrapure water was immediately added to the corresponding sample wells, and mixed well. 800 μL of a solution of 200 ng/mL tolbutamide and labetalol in acetonitrile was added to precipitate the protein. […] 150 μL of supernatant was taken out and analyzed by LC/MS/MS.

[4] = Protein binding rate in plasma by equilibrium dialysis, human; details: 2 μM, equilibrium dialysis 4 hours
Protocol: Protein binding rate of the assay compound in plasma of CD-1 mice, SD rats, beagle dogs, cynomolgus monkeys and human was determined by equilibrium dialysis. Plasma samples with a compound concentration of 2 μM were prepared using plasma of the above five species, placed in a 96-well equilibrium dialysis device, and dialyzed with phosphate buffer solution at 37±1° C. for 4 hours. Warfarin was used as the control compound in this assay. The concentrations of the assay compound in plasma and dialysis buffer were determined by LC-MS/MS method.

C=C(F)C(=O)N1CCN(c2nc(OC[C@@]34CCCN3C[C@H](F)C4)nc3c2CO[C@H](c2c(F)c(N)cc(C)c2C(F)(F)F)C3)C[C@@H]1CC#N [Compound of formula (I)]
half-life at 1 μM [1]: 1.66 h
hepatocyte CLint at 1 μM ([1]; read-out: CLint(hep)): 13.9 µL/min/1e6 cells
CLint scaled at 1 μM ([1]; read-out: CLint(liver)): 38.7 mL/min/kg
Detection of assay compound content within 120 min [2]: 94%
Detection of assay compound content within 240 min [3]: 115%
Protein unbound rate (%) [4]: 4.8%

— US20250129102A1, “CRYSTAL FORM OF PYRIMIDINE HETEROCYCLIC COMPOUND AND PREPARATION METHOD THEREFOR” (D3 Bio (Wuxi) Co., Ltd., priority 2021, published 2025)
